Measurements from the CheMixHub viscosity set.
Values joined by “and” are separate entries in the source; they are usually repeats but may differ in a detail not shown here. Equal entries are not always repeated.

Test: xn = mol fraction of the nth substance listed

CCCCOC(C)=O + O
303.15 K, 101 kPa
Conditions | viscosity [mPa·s]
x2 = 0.0201 | 0.64
x2 = 0.04 | 0.641
x2 = 0.0599 | 0.639

CCCN(CCC)C(C)=O + O
298.16 K, 101 kPa
Conditions | viscosity [mPa·s]
x2 = 0.0688 | 2.38
x2 = 0.1822 | 2.71
x2 = 0.3049 | 3.12
x2 = 0.4342 | 3.66
x2 = 0.5515 | 4.26
x2 = 0.6896 | 4.87
x2 = 0.74 | 4.95
x2 = 0.762 | 4.95
x2 = 0.7891 | 4.88
x2 = 0.8742 | 3.94
x2 = 0.9163 | 2.96

C[NH2+]C(C)Cc1ccc2c(c1)OCO2.[Cl-] (stereo unspecified) + O
viscosity [mPa·s], 100 kPa
Conditions | 293.15 K | 298.15 K | 303.15 K | 308.15 K | 313.15 K
x1 = 0.001729 | 1.063 | 0.942 | 0.842 | 0.758 | 0.686
x1 = 0.003622 | 1.125 | 0.995 | 0.888 | 0.798 | 0.721
x1 = 0.00541 | 1.18 | 1.042 | 0.929 | 0.834 | 0.752
x1 = 0.006269 | 1.206 | 1.065 | 0.949 | 0.851 | 0.767
x1 = 0.0072 | 1.233 | 1.088 | 0.969 | 0.869 | 0.783

Cn1c(=O)c2c(ncn2C)n(C)c1=O + O
Conditions | viscosity [mPa·s]
293.15 K, 100 kPa, x1 = 0.000362 | 1.007
293.15 K, 100 kPa, x1 = 0.00054 | 1.01
293.15 K, 100 kPa, x1 = 0.00072 | 1.013
293.15 K, 100 kPa, x1 = 0.0009 | 1.018
293.15 K, 100 kPa, x1 = 0.00108 | 1.022
293.15 K, 100 kPa, x1 = 0.00126 | 1.027
293.15 K, 100 kPa, x1 = 0.00144 | 1.031
298.15 K, 100 kPa, x1 = 0.000362 | 0.892
298.15 K, 100 kPa, x1 = 0.00054 | 0.897
298.15 K, 100 kPa, x1 = 0.00072 | 0.901
298.15 K, 100 kPa, x1 = 0.0009 | 0.903
298.15 K, 100 kPa, x1 = 0.00144 | 0.916
298.15 K, 101 kPa, x1 = 9.11e-06 | 0.8903
298.15 K, 101 kPa, x1 = 1.822e-05 | 0.8906
298.15 K, 101 kPa, x1 = 7.288e-05 | 0.8912
298.15 K, 101 kPa, x1 = 0.0001457 | 0.8921
298.15 K, 101 kPa, x1 = 0.0001858 | 0.8928
298.15 K, 101 kPa, x1 = 0.0002 | 0.8925
298.15 K, 101 kPa, x1 = 0.0002277 | 0.8933
298.15 K, 101 kPa, x1 = 0.00045 | 0.8973
298.15 K, 101 kPa, x1 = 0.0004553 | 0.8967
298.15 K, 101 kPa, x1 = 0.000835 | 0.9028
298.15 K, 101 kPa, x1 = 0.0009102 | 0.904
298.15 K, 101 kPa, x1 = 0.00168 | 0.9204
298.15 K, 101 kPa, x1 = 0.001827 | 0.9238
303.15 K, 100 kPa, x1 = 0.000362 | 0.799
303.15 K, 100 kPa, x1 = 0.00054 | 0.802
303.15 K, 100 kPa, x1 = 0.00072 | 0.805
303.15 K, 100 kPa, x1 = 0.0009 | 0.809
303.15 K, 100 kPa, x1 = 0.00108 | 0.812
303.15 K, 100 kPa, x1 = 0.00126 | 0.815
303.15 K, 100 kPa, x1 = 0.00144 | 0.819
308.15 K, 100 kPa, x1 = 0.000362 | 0.72
308.15 K, 100 kPa, x1 = 0.00072 | 0.725
308.15 K, 100 kPa, x1 = 0.00144 | 0.738
308.15 K, 101 kPa, x1 = 0.0002 | 0.7216
308.15 K, 101 kPa, x1 = 0.000508 | 0.7219
308.15 K, 101 kPa, x1 = 0.000835 | 0.7263
308.15 K, 101 kPa, x1 = 0.00106 | 0.7314
308.15 K, 101 kPa, x1 = 0.00168 | 0.7421
308.15 K, 101 kPa, x1 = 0.001827 | 0.7443
310.15 K, 101 kPa, x1 = 9.11e-06 | 0.6928
310.15 K, 101 kPa, x1 = 1.822e-05 | 0.6933
310.15 K, 101 kPa, x1 = 7.288e-05 | 0.6952
310.15 K, 101 kPa, x1 = 0.0001457 | 0.6977
310.15 K, 101 kPa, x1 = 0.0001858 | 0.6998
310.15 K, 101 kPa, x1 = 0.0002277 | 0.7014
310.15 K, 101 kPa, x1 = 0.0004553 | 0.7104
310.15 K, 101 kPa, x1 = 0.0009102 | 0.7283
313.15 K, 100 kPa, x1 = 0.000362 | 0.652
313.15 K, 100 kPa, x1 = 0.00054 | 0.655
313.15 K, 100 kPa, x1 = 0.00072 | 0.657
313.15 K, 100 kPa, x1 = 0.0009 | 0.66
313.15 K, 100 kPa, x1 = 0.00108 | 0.663
313.15 K, 100 kPa, x1 = 0.00126 | 0.665
313.15 K, 100 kPa, x1 = 0.00144 | 0.669
318.15 K, 101 kPa, x1 = 0.0002 | 0.5982
318.15 K, 101 kPa, x1 = 0.000508 | 0.6031
318.15 K, 101 kPa, x1 = 0.000835 | 0.6101
318.15 K, 101 kPa, x1 = 0.00106 | 0.6182
318.15 K, 101 kPa, x1 = 0.00139 | 0.6272
318.15 K, 101 kPa, x1 = 0.00168 | 0.6353
318.15 K, 101 kPa, x1 = 0.001827 | 0.6393

NC(=O)C[C@H](N)C(=O)O + O
viscosity, 101 kPa
Conditions | x1 = 0.00045 | x1 = 0.0009 | x1 = 0.001 | x1 = 0.00135 | x1 = 0.001798 | x1 = 0.002247 | x1 = 0.002695 | x1 = 0.003
293.15 K | 1.01 mPa·s | 1.018 mPa·s | 1.015 mPa·s | 1.025 mPa·s | 1.033 mPa·s | 1.041 mPa·s | 1.049 mPa·s | 1.033 mPa·s
298.15 K | 0.8972 mPa·s | 0.9037 mPa·s | 0.9105 mPa·s | 0.9104 mPa·s | 0.917 mPa·s | 0.9236 mPa·s | 0.9301 mPa·s | 0.9306 mPa·s
303.15 K | 0.8033 mPa·s | 0.8089 mPa·s | 0.8147 mPa·s | 0.8146 mPa·s | 0.8202 mPa·s | 0.8258 mPa·s | 0.8314 mPa·s | 0.8318 mPa·s and 0.8318 mPa·s
308.15 K | 0.7243 mPa·s | 0.7292 mPa·s | 0.734 mPa·s and 0.734 mPa·s | 0.734 mPa·s | 0.7388 mPa·s | 0.7436 mPa·s | 0.7484 mPa·s | 0.7488 mPa·s
313.15 K | 0.6573 mPa·s | 0.6615 mPa·s | 0.6657 mPa·s | 0.6657 mPa·s | 0.6699 mPa·s | 0.674 mPa·s | 0.6782 mPa·s | 0.6785 mPa·s
318.15 K | 0.6013 mPa·s | 0.605 mPa·s | 0.6087 mPa·s | 0.6087 mPa·s | 0.6123 mPa·s | 0.6159 mPa·s | 0.6195 mPa·s | 0.6198 mPa·s

Nc1ncnc2[nH]cnc12 + O
viscosity [mPa·s], 101.3 kPa
Conditions | 293.15 K | 298.15 K | 303.15 K | 308.15 K | 313.15 K | 318.15 K
x1 = 9.33e-05 | 1.006 | 0.895 | 0.803 | 0.738 | 0.623 | 0.595
x1 = 0.0001925 | 1.009 | 0.898 | 0.806 | 0.741 | 0.626 | 0.598
x1 = 0.0002792 | 1.011 | 0.9 | 0.808 | 0.743 | 0.628 | 0.6
x1 = 0.0003724 | 1.013 | 0.902 | 0.81 | 0.745 | 0.63 | 0.602
x1 = 0.0004489 | 1.015 | 0.904 | 0.812 | 0.747 | 0.632 | 0.604
x1 = 0.0005443 | 1.017 | 0.906 | 0.814 | 0.749 | 0.634 | 0.606

O=[PH2][O-].[Na+] + O
Conditions | viscosity [mPa·s]
298.15 K, 101 kPa, x1 = 0.2095 | 4.83

O=c1[nH]c2nc(O)nc(O)c2[nH]1 + O
viscosity [mPa·s], 101.3 kPa
Conditions | 298.15 K | 303.15 K | 308.15 K | 313.15 K
x1 = 1e-06 | 0.9 | 0.82 | 0.73 | 0.63
x1 = 2e-06 | 0.9 | 0.83 | 0.75 | 0.65
x1 = 3e-06 | 0.91 | 0.84 | 0.76 | 0.66

[Cl-].[Cl-].[Mn+2] + O
Conditions | viscosity [mPa·s]
298.15 K, 101.33 kPa, x1 = 0.09931 | 8.35

[K+].[OH-] + O
323.15 K, 101 kPa
Conditions | viscosity [mPa·s]
x1 = 0.009 | 0.586
x1 = 0.026 | 0.67
x1 = 0.059 | 0.853
x1 = 0.08 | 1.01
x1 = 0.1 | 1.26
x1 = 0.2 | 1.75
x1 = 0.21 | 2.84
x1 = 0.3 | 4.62

O=C(O)c1ccco1 + O=C1CCCCCN1
101 kPa, x2 = 0.5
Conditions | viscosity [mPa·s]
303.1 K | 179.6
313.2 K | 79.63
323.1 K | 44.44
